Molecular target: T1, GRK6, recombinant full-length GST-tagged human protein (Homo sapiens, UniProt P43250)
T1 construct: GRK6, recombinant full-length GST-tagged human protein; GST
Assay: GRK6 IC50 determination (8-point concentration-response)
Type: biochemical
Details: not given
From the text: Two hundred forty compounds were further characterized by determining IC50 values in a GRK6 assay. This screen has been previously described in WO 2013/063458, which is incorporated by reference in its entirety herein.

T1 sequence (P43250 whole entry): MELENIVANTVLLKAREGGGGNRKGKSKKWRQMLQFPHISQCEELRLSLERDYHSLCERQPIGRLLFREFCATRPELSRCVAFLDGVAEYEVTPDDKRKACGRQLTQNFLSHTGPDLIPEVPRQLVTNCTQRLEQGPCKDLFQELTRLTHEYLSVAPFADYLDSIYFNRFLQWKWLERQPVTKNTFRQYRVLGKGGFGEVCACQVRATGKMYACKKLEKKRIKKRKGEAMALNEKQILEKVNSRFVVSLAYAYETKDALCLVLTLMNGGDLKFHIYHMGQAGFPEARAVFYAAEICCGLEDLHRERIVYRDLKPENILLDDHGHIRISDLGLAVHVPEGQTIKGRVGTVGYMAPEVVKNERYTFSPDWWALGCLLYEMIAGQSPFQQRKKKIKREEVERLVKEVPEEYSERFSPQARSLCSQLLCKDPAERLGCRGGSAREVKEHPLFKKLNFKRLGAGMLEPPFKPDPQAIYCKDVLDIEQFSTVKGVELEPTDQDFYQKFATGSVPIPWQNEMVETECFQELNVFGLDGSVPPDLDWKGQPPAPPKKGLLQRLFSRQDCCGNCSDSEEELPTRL

Row | Compound | IC50
1 | O=C(O)CSc1nnc(-c2cc(-c3ccc4ncccc4c3)cc([N+](=O)[O-])c2)[nH]1 [Compound 19] | 180 nM
2 | Cc1cncc(-c2cc(-c3ccc4ccccc4c3)cc(-c3nnc(SCC(=O)O)[nH]3)c2)c1 [Compound 34] | 349 nM
3 | Cc1ncc(-c2cc(-c3ccc4ccccc4c3)cc(-c3nnc(SCC(=O)O)[nH]3)c2)cn1 [Compound 44] | 437 nM
4 | N#CCc1cc(-c2ccc3ccccc3c2)cc(-c2nnc(SCC(=O)O)[nH]2)c1 [Compound 18] | 178 nM
5 | O=C(O)CSc1nnc(-c2cc(-c3ccc(O)cc3)cc([N+](=O)[O-])c2)[nH]1 [Compound 22] | 187 nM
6 | Cn1ccc2c(-c3cc(-c4nnc(SCC(=O)O)[nH]4)cc([N+](=O)[O-])c3)cccc21 [Compound 16] | 140 nM
7 | O=C(O)CSc1nnc(-c2cc(-c3ccc4nccnc4c3)cc([N+](=O)[O-])c2)[nH]1 [Compound 50] | 509 nM
8 | COc1ccncc1-c1cc(-c2ccc3ccccc3c2)cc(-c2nnc(SCC(=O)O)[nH]2)c1 [Compound 36] | 352 nM
9 | Cn1ccc2ccc(-c3cc(-c4nnc(SCC(=O)O)[nH]4)cc([N+](=O)[O-])c3)cc21 [Compound 1] | 50 nM
10 | Nc1cc(-c2ccc3ccccc3c2)cc(-c2nnc(SCC(=O)O)[nH]2)c1 [Compound 43] | 433 nM
11 | COc1ccc2cc(-c3cc(-c4nnc(SCC(=O)O)[nH]4)cc([N+](=O)[O-])c3)ccc2c1 [Compound 23] | 199 nM
12 | O=C(O)CSc1nnc(-c2cc(-c3ccc4ccccc4c3)cc(-c3cnco3)c2)[nH]1 [Compound 13] | 122 nM
13 | O=C(O)CSc1nnc(-c2cc(-c3ccc4scnc4c3)cc([N+](=O)[O-])c2)[nH]1 [Compound 20] | 184 nM
14 | Cc1nn(C)cc1-c1cc(-c2ccc3ccccc3c2)cc(-c2nnc(SCC(=O)O)[nH]2)c1 [Compound 57] | 748 nM
15 | O=C(O)CSc1nnc(-c2cc(-c3ccc4[nH]cnc4c3)cc([N+](=O)[O-])c2)[nH]1 [Compound 26] | 249 nM
16 | O=C(O)CSc1nnc(-c2cc(-c3ccoc3)cc(-c3ccc4ccccc4c3)c2)[nH]1 [Compound 56] | 686 nM
17 | O=C(O)CSc1nnc(-c2cc(C(=O)Nc3ccccc3)cc([N+](=O)[O-])c2)[nH]1 [Compound 82] | 761 nM
18 | O=C(O)CSc1nnc(-c2cc(-c3cnn(Cc4ccccc4)c3)cc([N+](=O)[O-])c2)[nH]1 [Compound 72] | 141 nM
19 | O=C(O)CSc1nnc(-c2cc(-c3cn[nH]c3)cc([N+](=O)[O-])c2)[nH]1 [Compound 74] | 379 nM
20 | COc1ccc(-c2cc(-c3ccc4ccccc4c3)cc(-c3nnc(SCC(=O)O)[nH]3)c2)cn1 [Compound 66] | 1080 nM
21 | Cc1nn(C)cc1-c1cc(-c2nnc(SCC(=O)O)[nH]2)cc([N+](=O)[O-])c1 [Compound 79] | 750 nM
22 | Cc1c(-c2cc(-c3ccc4ccccc4c3)cc(-c3nnc(SCC(=O)O)[nH]3)c2)cnn1C [Compound 38] | 376 nM
23 | Cc1c(-c2ccc3c(ccn3C)c2)cc(-c2nnc(SCC(=O)O)[nH]2)cc1[N+](=O)[O-] [Compound 9] | 103 nM
24 | CS(=O)(=O)Nc1cccc(-c2cc(-c3nnc(SCC(=O)O)[nH]3)cc([N+](=O)[O-])c2)c1 [Compound 32] | 300 nM
25 | O=C(O)CSc1nnc(-c2cc(-c3ccc(C(F)(F)F)nc3)cc(-c3ccc4ccccc4c3)c2)[nH]1 [Compound 70] | 2730 nM
26 | Cn1ccc(-c2cc(-c3nnc(SCC(=O)O)[nH]3)cc([N+](=O)[O-])c2)n1 [Compound 75] | 431 nM
27 | O=C(O)CSc1nnc(-c2cc(-c3ccc(-c4ccn[nH]4)cc3)cc([N+](=O)[O-])c2)[nH]1 [Compound 2] | 58.8 nM
28 | O=C(O)CSc1nc(-c2cc(Br)cc(-c3ccc4ccccc4c3)c2)n[nH]1 [Compound 40] | 421 nM
29 | CC(=O)Nc1ccc(-c2cc(-c3nnc(SCC(=O)O)[nH]3)cc([N+](=O)[O-])c2)cc1 [Compound 27] | 262 nM

Results, then the compound that gave them:

Row | IC50 | Compound
30 | 358 nM | Cc1c(-c2cc(-c3nnc(SCC(=O)O)[nH]3)cc([N+](=O)[O-])c2)ccc2[nH]c(C(N)=O)cc12 [Compound 235]
31 | > 58000 nM | O=C(O)CSc1nnc(-c2cc3c(cc2[N+](=O)[O-])OCO3)[nH]1 [Compound 212]
32 | 11700 nM | O=C(O)CSc1nnc(-c2cccc(C(=O)Nc3ccc(Cl)cc3)c2)[nH]1 [Compound 148]
33 | 2020 nM | O=C(O)CSc1nnc(-c2cc(-c3cnn(CC(=O)O)c3)cc([N+](=O)[O-])c2)[nH]1 [Compound 95]
34 | 13400 nM | O=C(O)CSc1nnc(-c2cccc3cc[nH]c23)[nH]1 [Compound 153]
35 | 402 nM | Cc1c(-c2cc(-c3nnc(SCC(=O)O)[nH]3)cc([N+](=O)[O-])c2)ccc2[nH]c(C#N)cc12 [Compound 236]
36 | 184 nM | N#Cc1cc2cc(-c3cc(-c4nnc(SCC(=O)O)[nH]4)cc([N+](=O)[O-])c3)ccc2[nH]1 [Compound 232]
37 | > 80000 nM | O=C(O)CSc1nnc(-c2c(O)ccc3ccccc23)[nH]1 [Compound 224]
38 | 20400 nM | CNC(=O)c1cccc(NC(=O)c2cccc(-c3nnc(SCC(=O)O)[nH]3)c2)c1 [Compound 167]
39 | 1570 nM | Cc1nn(C)c(C)c1-c1cc(-c2nnc(SCC(=O)O)[nH]2)cc([N+](=O)[O-])c1 [Compound 93]
40 | 17300 nM | O=C(O)CSc1nnc(-c2cccc(C(=O)Nc3ccc4c(c3)NC(=O)CC4)c2)[nH]1 [Compound 160]
41 | 442 nM | Cc1ccc2cc(-c3cc(-c4nnc(SCC(=O)O)[nH]4)cc([N+](=O)[O-])c3)ccc2c1 [Compound 238]
42 | 267 nM | Cc1cc2cc(-c3cc(-c4nnc(SCC(=O)O)[nH]4)cc([N+](=O)[O-])c3)ccc2n1C [Compound 234]
43 | 438 nM | O=C(O)CSc1nnc(-c2cc(-c3cccc4c3oc3ccccc34)cc([N+](=O)[O-])c2)[nH]1 [Compound 237]
44 | 20200 nM | CN1CCOc2cc(-c3nnc(SCC(=O)O)[nH]3)ccc21 [Compound 166]
45 | 3330 nM | O=C(O)CSc1nnc(-c2cccc(C(=O)Nc3ccc4c(c3)NC(=O)C4)c2)[nH]1 [Compound 105]
46 | 7920 nM | O=C(O)CSc1nnc(-c2cccc(C(=O)Nc3cccc(Cl)c3)c2)[nH]1 [Compound 135]
47 | 101 nM | NC(=O)c1cc2cc(-c3cc(-c4n[nH]c(SCC(=O)O)n4)cc([N+](=O)[O-])c3)ccc2[nH]1 [Compound 228]
48 | 114 nM | Cn1ccc2cc(-c3cc(-c4n[nH]c(SCC(=O)O)n4)cc([N+](=O)[O-])c3)cc(Cl)c21 [Compound 229]
49 | 930 nM | O=C(O)CSc1nnc(-c2cc(-c3ccc4c(c3)[nH]c3ccccc34)cc([N+](=O)[O-])c2)[nH]1 [Compound 240]
50 | 29600 nM | O=C(O)CSc1nnc(-c2cccc3cnccc23)[nH]1 [Compound 175]
51 | 11400 nM | O=C(O)CSc1nnc(-c2cccc(C(=O)Nc3cccc4[nH]ncc34)c2)[nH]1 [Compound 146]

Same assay, conditions: 20 nM GRK6, 12 μM ATP (Km), 1 μM Peptide 216, 7 h incubation

Row | Compound | IC50
52 | O=C(O)CSc1nnc(-c2cc(Br)ccc2O)[nH]1 [Compound 89] | 1050 nM
53 | COc1ccc2cc(-c3cccc(-c4nnc(SCC(=O)O)[nH]4)c3)ccc2c1 [Compound 51] | 510 nM
54 | N#Cc1cccc(-c2cccc(-c3nnc(SCC(=O)O)[nH]3)c2)c1 [Compound 64] | 919 nM
55 | COc1cc(Cl)cc(-c2cccc(-c3nnc(SCC(=O)O)[nH]3)c2)c1 [Compound 41] | 426 nM

Continued, values first:

Row | IC50 | Compound
56 | 18300 nM | COc1ccc(F)c(-c2nnc(SCC(=O)O)[nH]2)c1 [Compound 163]
57 | 6880 nM | Cc1ccc(-c2nnc(SCC(=O)O)[nH]2)c(O)c1 [Compound 129]
58 | 40000 nM | O=C(O)CSc1nnc(-c2ccc(OC3CCNCC3)cc2)[nH]1 [Compound 182]
59 | 6500 nM | O=C(O)CSc1nnc(-c2cccc(-c3cnccn3)c2)[nH]1 [Compound 126]
60 | 5850 nM | COc1cccc(-c2nnc(SCC(=O)O)[nH]2)c1 [Compound 121]
61 | 9560 nM | COC(=O)c1ccc(-c2nnc(SCC(=O)O)[nH]2)cc1 [Compound 142]
62 | 18900 nM | CNS(=O)(=O)c1cccc(-c2nnc(SCC(=O)O)[nH]2)c1 [Compound 165]
63 | 3360 nM | O=C(O)CSc1nnc(-c2ccc(F)c(F)c2)[nH]1 [Compound 106]
64 | 6800 nM | O=C(O)CSc1nnc(-c2ccc(O)c([N+](=O)[O-])c2)[nH]1 [Compound 128]
65 | 5020 nM | O=C(O)CSc1nnc(-c2ccc(O)c(O)c2)[nH]1 [Compound 119]
66 | 11600 nM | O=C(O)CSc1nnc(-c2ccc(O)cc2O)[nH]1 [Compound 147]
67 | 9900 nM | COc1cc(-c2nnc(SCC(=O)O)[nH]2)ccc1OC(C)=O [Compound 144]
68 | 4550 nM | COc1ccc(O)c(-c2nnc(SCC(=O)O)[nH]2)c1 [Compound 113]
69 | 21900 nM | O=C(O)CSc1nnc(-c2cccc(N3CCNCC3)c2)[nH]1 [Compound 171]
70 | 87000 nM | COc1ccc(Br)cc1-c1nnc(SCC(=O)O)[nH]1 [Compound 192]
71 | 35300 nM | CN(CCC#N)c1ccc(-c2nnc(SCC(=O)O)[nH]2)cc1 [Compound 179]
72 | 6160 nM | O=C(O)CSc1nnc(-c2cc(O)ccc2O)[nH]1 [Compound 123]
73 | 51800 nM | O=C(O)CSc1nnc(-c2cccc(N3CCCCC3)c2)[nH]1 [Compound 187]
74 | 6360 nM | CS(=O)(=O)c1cccc(-c2nnc(SCC(=O)O)[nH]2)c1 [Compound 124]
75 | 40000 nM | CN(C)c1ccc(-c2nnc(SCC(=O)O)[nH]2)c([N+](=O)[O-])c1 [Compound 183]
76 | 8840 nM | CCSc1ccc(-c2nnc(SCC(=O)O)[nH]2)cc1 [Compound 141]
77 | 8830 nM | COc1cc(-c2nnc(SCC(=O)O)[nH]2)cc(OC)c1O [Compound 140]
78 | 23700 nM | COc1cc(F)c(-c2nnc(SCC(=O)O)[nH]2)cc1OC [Compound 172]
79 | 16200 nM | O=C(O)CSc1nnc(-c2cccc(Cn3cccn3)c2)[nH]1 [Compound 159]
80 | 13300 nM | COc1ccc(-c2nnc(SCC(=O)O)[nH]2)cc1O [Compound 152]
81 | 2710 nM | Cc1ccc(O)c(-c2nnc(SCC(=O)O)[nH]2)c1 [Compound 99]
